CC(=O)[C@@]1(O)CC[C@H]2[C@@H]3CCC4=CC(=O)CC[C@]4(C)[C@H]3C(O)C[C@@]21C (stereo in doubt)
solubility (mole fraction)
Details | 278.15 K | 283.15 K | 288.15 K | 293.15 K | 298.15 K | 303.15 K | 308.15 K | 313.15 K
in DMF | 0.0659 | 0.0722 | 0.0753 | 0.0825 | 0.0943 | 0.1 | 0.11 | 0.119
in acetone | 0.00679 | 0.00761 | 0.00804 | 0.00859 | 0.0095 | 0.0106 | 0.0115 | 0.0123
in chloroform | 0.0129 | 0.0134 | 0.0141 | 0.0146 | 0.0157 | 0.016 | 0.0172 | 0.0189
in methanol | 0.0139 | 0.0147 | 0.0159 | 0.0172 | 0.0181 | 0.0206 | 0.0232 | 0.0249
in n-propanol | 0.00838 | 0.00978 | 0.0112 | 0.0129 | 0.0134 | 0.0143 | 0.0157 | 0.0169
in water | 1.39e-05 | 1.73e-05 | 2.08e-05 | 2.43e-05 | 2.77e-05 | 3.47e-05 | 3.64e-05 | 3.98e-05

— BigSolDB 2.1
